The values below come from patent US20100168176A1, “NOVEL COMPOUNDS, PHARMACEUTICAL COMPOSITIONS CONTAINING SAME, AND METHODS OF USE FOR SAME” (FASGEN LLC, priority 2006, published 2010).

The term IC50 denotes the midpoint of a concentration-inhibition curve. Read a high IC50 as weaker potency.

Molecules are shown by their SMILES. In brackets after ≈: the same amount, converted by molar mass.

One test addresses T1, purified human FAS (Homo sapiens, UniProt P49327).
T1 construct: Human FAS was purified from cultured ZR-75-1 human breast cancer cells; endogenous in cells; host or cells: ZR-75-1 human breast cancer cells (ATCC); Purified by hypotonic lysis, PEG precipitations and Mono Q anion exchange
In words: FAS enzymatic activity (malonyl-CoA dependent NADPH oxidation, OD340). It counts as biochemical. The settings on record: purified human FAS from ZR-75-1 cells. How it is done:
Purification of FAS from ZR-75-1 Human Breast Cancer Cells.
Human FAS was purified from cultured ZR-75-1 human breast cancer cells obtained from the American Type Culture Collection. The procedure, adapted from Linn et al., 1981, and Kuhajda et al., 1994, utilizes hypotonic lysis, successive polyethyleneglycol (PEG) precipitations, and anion exchange chromatography. ZR-75-1 cells are cultured at 37° C. with 5% CO2 in RPMI culture medium with 10% fetal bovine serum, penicillin and streptomycin.
Ten T150 flasks of confluent cells are lysed with 1.5 ml lysis buffer (20 mM Tris-HCl, pH 7.5, 1 mM EDTA, 0.1 mM phenylmethanesulfonyl fluoride (PMSF), 0.1% Igepal CA-630) and dounce homogenized on ice for 20 strokes. The lysate is centrifuged in JA-20 rotor (Beckman) at 20,000 rpm for 30 minutes at 4° C. and the supernatant is brought to 42 ml with lysis buffer. A solution of 50% PEG 8000 in lysis buffer is added slowly to the supernatant to a final concentration of 7.5%. After rocking for 60 minutes at 4° C., the solution is centrifuged in JA-20 rotor (Beckman) at 15,000 rpm for 30 minutes at 4° C. Solid PEG 8000 is then added to the supernatant to a final concentration of 15%. After the rocking and centrifugation is repeated as above, the pellet is resuspended overnight at 4° C. in 10 ml of Buffer A (20 mM K2HPO4, pH 7.4). […] FAS protein concentration is determined using the Coomassie Plus Protein Assay Reagent (Pierce) according to manufacturer's specifications using BSA as a standard. […]
FAS activity is measured by monitoring the malonyl-CoA dependent oxidation of NADPH spectrophotometrically at OD340 in 96-well plates (Dils et al and Arslanian et al, 1975). […]
The assay is performed on a Molecular Devices SpectraMax Plus Spectrophotometer. […] Using the kinetic protocol, the wells are blanked on duplicate wells containing 100 μl of 100 mM K2HPO4, pH 6.5 and the plate is read at OD340 at 10 sec intervals for 5 minutes to measure any malonyl-CoA independent oxidation of NADPH. […] The plate is read again as above with the kinetic protocol to measure the malonyl-CoA dependent NADPH oxidation. […]

The test system of test [1] is MCF-7 human breast cancer cells. Briefly: [14C]acetate incorporation into total lipids. It counts as cell-based. The settings on record: MCF7. How it is done: Measurement of [^14 C]acetate Incorporation into Total Lipids and Determination of IC50 of Compounds
This assay measures the incorporation of [^14C]acetate into total lipids and is a measure of fatty acid synthesis pathway activity in vitro. It is utilized to measure inhibition of fatty acid synthesis in vitro.
MCF-7 human breast cancer cells cultured as above, are plated at 5×10^4 cells per well in 24-well plates. Following overnight incubation, the compounds to be tested, solubilized in DMSO, are added at 5, 10, and 20 μg/ml in triplicate, with lower concentrations tested if necessary. DMSO is added to triplicate wells for a vehicle control. C75 is run at 5 and 10 μg/ml in triplicate as positive controls. After 4 hours of incubation, 0.25 μCi of [^14C]acetate (10 μl volume) is added to each well.
After 2 hours of additional incubation, medium is aspirated from the wells and 800 μl of chloroform:methanol (2:1) and 700 μl of 4 mM MgCl2 is added to each well. Contents of each well are transferred to 1.5 Eppendorf tubes, and spun at full-speed for 2 minutes in a high-speed Eppendorf Microcentrifuge 5415D. After removal of the aqueous (upper) layer, an additional 700 μl of chloroform:methanol (2:1) and 500 μl of 4 mM MgCl2 are added to each tube and then centrifuged for 1 minutes as above. The aqueous layer is removed with a Pasteur pipette and discarded. An additional 400 μl of chloroform:methanol (2:1) and 200 μl of 4 mM MgCl2 are added to each tube, then centrifuged and aqueous layer is discarded. The lower (organic) phase is transferred into a scintillation vial and dried at 40° C. under N2 gas. Once dried, 3 ml of scintillant (APB #NBC5104) is added and vials are counted for ^14C. The Beckman Scintillation counter calculates the average cpm values for triplicates.
The IC50 for the compounds is defined as the concentration of drug leading to a 50% reduction in [^14C]acetate incorporation into lipids compared to controls. This is determined by plotting the average cpm for each inhibitor concentration tested, performing linear regression and computing the best-fit line, r^2 values, and 95% confidence intervals. The average cpm values are computed by the Beckman scintillation counter (Model LS6500) for each compound concentration. Computation of linear regression, best-fit line, r^2, and 95% confidence intervals are calculated using Prism Version 3.0 (Graph Pad Software).

The subject of the next test is FAO. Briefly: FAO SC 150 / FAO Max. The following applies: for FAO Max: at the concentration given under E18.

T1 sequence (P49327 whole entry): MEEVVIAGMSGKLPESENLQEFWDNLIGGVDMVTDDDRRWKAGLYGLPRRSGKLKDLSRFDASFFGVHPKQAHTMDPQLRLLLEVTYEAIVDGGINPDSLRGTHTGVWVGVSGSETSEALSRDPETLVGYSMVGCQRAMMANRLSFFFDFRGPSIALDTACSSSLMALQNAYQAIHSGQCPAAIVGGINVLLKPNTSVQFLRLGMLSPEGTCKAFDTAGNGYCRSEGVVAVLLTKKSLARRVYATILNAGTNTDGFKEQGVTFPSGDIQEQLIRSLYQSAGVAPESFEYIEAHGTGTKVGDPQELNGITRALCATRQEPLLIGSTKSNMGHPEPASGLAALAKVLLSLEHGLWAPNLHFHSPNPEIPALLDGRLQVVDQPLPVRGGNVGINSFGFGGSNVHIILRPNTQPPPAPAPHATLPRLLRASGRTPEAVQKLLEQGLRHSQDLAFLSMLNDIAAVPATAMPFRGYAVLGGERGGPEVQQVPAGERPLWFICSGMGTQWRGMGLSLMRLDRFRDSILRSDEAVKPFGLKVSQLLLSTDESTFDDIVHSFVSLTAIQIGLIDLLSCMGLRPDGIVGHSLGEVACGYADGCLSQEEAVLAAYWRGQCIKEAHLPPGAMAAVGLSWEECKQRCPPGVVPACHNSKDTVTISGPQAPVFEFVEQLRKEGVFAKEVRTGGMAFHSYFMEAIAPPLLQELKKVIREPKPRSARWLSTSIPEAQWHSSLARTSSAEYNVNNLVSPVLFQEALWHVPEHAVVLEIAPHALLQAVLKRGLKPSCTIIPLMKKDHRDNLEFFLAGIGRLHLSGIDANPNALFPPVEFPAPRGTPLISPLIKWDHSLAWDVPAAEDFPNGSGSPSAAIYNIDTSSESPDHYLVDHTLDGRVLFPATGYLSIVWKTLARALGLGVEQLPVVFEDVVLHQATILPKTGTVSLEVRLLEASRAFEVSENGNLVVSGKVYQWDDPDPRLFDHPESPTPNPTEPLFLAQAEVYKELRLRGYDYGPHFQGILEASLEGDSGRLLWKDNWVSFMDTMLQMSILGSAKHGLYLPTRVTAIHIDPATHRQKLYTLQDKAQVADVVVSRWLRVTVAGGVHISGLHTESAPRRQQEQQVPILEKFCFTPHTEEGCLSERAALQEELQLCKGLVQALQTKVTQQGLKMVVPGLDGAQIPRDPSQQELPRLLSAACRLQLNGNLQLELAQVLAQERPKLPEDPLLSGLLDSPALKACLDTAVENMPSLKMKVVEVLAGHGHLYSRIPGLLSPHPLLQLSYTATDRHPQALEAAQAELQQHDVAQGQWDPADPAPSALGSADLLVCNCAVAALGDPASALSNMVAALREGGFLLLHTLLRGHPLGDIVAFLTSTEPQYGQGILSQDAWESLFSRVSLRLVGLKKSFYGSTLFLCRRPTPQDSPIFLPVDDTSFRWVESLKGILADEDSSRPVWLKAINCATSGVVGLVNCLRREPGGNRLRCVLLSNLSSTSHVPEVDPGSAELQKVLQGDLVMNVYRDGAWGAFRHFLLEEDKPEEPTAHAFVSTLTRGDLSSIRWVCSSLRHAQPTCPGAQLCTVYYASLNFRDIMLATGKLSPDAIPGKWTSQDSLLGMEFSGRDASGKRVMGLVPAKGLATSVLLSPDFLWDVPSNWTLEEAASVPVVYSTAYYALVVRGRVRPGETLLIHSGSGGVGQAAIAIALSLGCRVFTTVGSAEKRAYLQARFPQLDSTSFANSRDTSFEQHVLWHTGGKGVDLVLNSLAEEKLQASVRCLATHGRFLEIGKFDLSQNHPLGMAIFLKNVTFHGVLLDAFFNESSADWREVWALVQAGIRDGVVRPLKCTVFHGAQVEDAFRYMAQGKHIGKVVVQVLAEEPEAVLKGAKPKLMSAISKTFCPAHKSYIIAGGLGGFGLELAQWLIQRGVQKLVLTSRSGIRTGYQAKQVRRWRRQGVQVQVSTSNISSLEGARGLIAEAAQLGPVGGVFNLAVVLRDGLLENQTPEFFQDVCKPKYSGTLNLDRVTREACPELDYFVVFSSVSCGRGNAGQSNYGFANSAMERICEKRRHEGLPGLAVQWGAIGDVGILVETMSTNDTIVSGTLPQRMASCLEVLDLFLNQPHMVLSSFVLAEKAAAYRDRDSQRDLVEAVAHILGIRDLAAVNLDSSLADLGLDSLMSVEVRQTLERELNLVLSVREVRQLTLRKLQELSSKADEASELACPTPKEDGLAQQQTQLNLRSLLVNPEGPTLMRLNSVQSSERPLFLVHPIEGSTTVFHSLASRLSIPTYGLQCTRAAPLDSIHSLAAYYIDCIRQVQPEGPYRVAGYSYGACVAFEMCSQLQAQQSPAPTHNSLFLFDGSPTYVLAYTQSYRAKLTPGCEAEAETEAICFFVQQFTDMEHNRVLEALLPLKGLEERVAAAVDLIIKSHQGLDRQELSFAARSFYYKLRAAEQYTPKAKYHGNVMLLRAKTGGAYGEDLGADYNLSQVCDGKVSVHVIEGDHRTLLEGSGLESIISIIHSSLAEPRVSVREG

Turning to `CCCCCCCCC1(C)SC(=O)C=C1OCC(=O)NNc1ccccc1Cl` (stereo not shown) [Compound 19, (5-Methyl-5-octyl-2-oxo-thiophen-4-yloxy)-acetic-acid-N′-(2-chlorophenyl)-hydrazide], the “FAS (IC50)” value on purified human FAS is recorded as “Neg”. In addition, inhibition in test [1] was half-maximal at 39.8 ± 12.7 µg/mL (≈ 93.6 µM) (IC50). Moreover, in the test with FAO, the “FAO Max: concentration at which the maximum was seen” value turned out to be 0.125 µg/mL, the “FAO SC 150” value is listed as “Neg” and the “FAO Max” value came out at 90% @.
With `CCCCCCCCC1(C)SC(=O)C=C1OCC(=O)NNC(=O)c1ccncc1` (stereo not shown) [Compound 20], the “FAS (IC50)” value at purified human FAS is given as “Neg”. The same compound displayed an IC50 in test [1] of 17.4 µg/mL (≈ 41.5 µM). Besides, in the test with FAO, the “FAO Max: concentration at which the maximum was seen” value was 0.125 µg/mL, the “FAO SC 150” value is “Neg” and the “FAO Max” value came to 89% @.
